Results taken from US12679832B2, “Compounds and their uses as CD38 inhibitors” (Nanjing Immunophage Biotech Co., Ltd., priority 2021, dated 2026).
Counter-ions that a name gives are not always drawn.

Each compound was assayed against T1, hCD38 Enzyme (Homo sapiens, UniProt P28907) (assay: CD38 hydrolase enzymatic assay). Settings: rhCD38, ε-NAD substrate, 25° C., point reading time 20 mins; read-out: hCD38 Enzyme inhibition IC50.
T1 construct: purchased Sino Biological Inc 10818-H08H
T1 sequence (P28907 43-300 limits assumed): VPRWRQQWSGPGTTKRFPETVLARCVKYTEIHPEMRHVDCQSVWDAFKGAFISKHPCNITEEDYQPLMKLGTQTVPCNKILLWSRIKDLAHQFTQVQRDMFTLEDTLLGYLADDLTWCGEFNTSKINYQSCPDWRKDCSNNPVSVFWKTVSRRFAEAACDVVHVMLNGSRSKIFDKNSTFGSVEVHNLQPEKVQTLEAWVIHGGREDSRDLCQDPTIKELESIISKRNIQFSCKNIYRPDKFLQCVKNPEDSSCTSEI
Type: biochemical
Method: Also, a blank sample was prepared with 50 μl of sucrose buffer and no test compounds.
The dynamic reading was performed at 25° C. with excitation light of 300 nm and emission light of 410 nm on the enzyme marker by contacting the above-prepared rhCD38 enzyme working fluid and the above-prepared solutions of the test compounds disclosed herein or the solution of the control. The readings were recorded for a total of 1 hour, and the data were analyzed with the point reading time of 20 mins.
Fluorescence was recorded by a microplate reader. Individual excel files containing fluorescence data were exported and the results were plotted against various drug concentrations and analyzed in GraphPad Prism 7.0 for concentration curve generation.

Row | Compound | IC50
1 | O=C(Nc1ccccc1)c1ccnc(-n2ccnc2)n1 [compound 82, 2-(1H-imidazol-1-yl)-N-phenylpyrimidine-4-carboxamide] | 3 nM
2 | Cc1ccccc1NC(=O)c1ccnc(-n2ccnc2)n1 [compound 83, 2-(1H-imidazol-1-yl)-N-(o-tolyl)pyrimidine-4-carboxamide] | 132 nM
3 | O=C(Nc1ccccc1F)c1ccnc(-n2ccnc2)n1 [compound 84, N-(2-fluorophenyl)-2-(1H-imidazol-1-yl)pyrimidine-4-carboxamide] | 13 nM
4 | O=C(Nc1ccccc1Cl)c1ccnc(-n2ccnc2)n1 [compound 85, N-(2-chlorophenyl)-2-(1H-imidazol-1-yl)pyrimidine-4-carboxamide] | 29 nM
5 | CO[C@H]1CC[C@H](NC(=O)c2cc(C)nc(-n3ccnc3)n2)CC1 [compound 99, 2-(1H-imidazol-1-yl)-N-((1r,4r)-4-methoxycyclohexyl)-6-methylpyrimidine-4-carboxamide] | 9 nM
6 | CO[C@H]1CC[C@H](NC(=O)c2ccnc(-n3cccn3)n2)CC1 [compound 100, N-((1r,4r)-4-methoxycyclohexyl)-2-(1H-pyrazol-1-yl)pyrimidine-4-carboxamide] | 3430 nM
7 | O=C(Nc1cccc(F)c1)c1cc(N2CCCCC2)nc(-n2ccnc2)n1 [compound 101, N-(3-fluorophenyl)-2-(1H-imidazol-1-yl)-6-(piperidin-1-yl)pyrimidine-4-carboxamide] | 17 nM
8 | O=C(Nc1cccc(F)c1)c1ccnc(-n2cccn2)n1 [compound 102, N-(3-fluorophenyl)-2-(1H-pyrazol-1-yl)pyrimidine-4-carboxamide] | > 10000 nM
9 | CO[C@H]1CC[C@H](NC(=O)c2cc(C(F)(F)F)nc(-n3ccnc3)n2)CC1 [compound 103, 2-(1H-imidazol-1-yl)-N-((1r,4r)-4-methoxycyclohexyl)-6-(trifluoromethyl) pyrimidine-4-carboxamide] | 28 nM
10 | CO[C@H]1CC[C@H](NC(=O)c2cc(OC3CCC3)nc(-n3ccnc3)n2)CC1 [compound 104, 6-cyclobutoxy-2-(1H-imidazol-1-yl)-N-((1r,4r)-4-methoxycyclohexyl)pyrimidine-4-carboxamide] | 26 nM
11 | COc1cc(C(=O)N[C@H]2CC[C@H](OC)CC2)nc(-n2ccnc2)n1 [compound 105, 2-(1H-imidazol-1-yl)-6-methoxy-N-((1r,4r)-4-methoxycyclohexyl) pyrimidine-4-carboxamide] | 20 nM
12 | CO[C@H]1CC[C@H](NC(=O)c2cc(C#N)nc(-n3ccnc3)n2)CC1 [compound 106, 6-cyano-2-(1H-imidazol-1-yl)-N-((1r,4r)-4-methoxycyclohexyl)pyrimidine-4-carboxamide] | 18 nM
13 | O=C(Nc1ccccn1)c1ccnc(-n2ccnc2)n1 [compound 112, 2-(1H-imidazol-1-yl)-N-(pyridin-2-yl)pyrimidine-4-carboxamide] | 20 nM
14 | O=C(Nc1cccc(F)c1)c1cc(N2CCOCC2)nc(-n2ccnc2)n1 [compound 114, N-(3-fluorophenyl)-2-(1H-imidazol-1-yl)-6-morpholinopyrimidine-4-carboxamide] | 5 nM
15 | O=C(Nc1cccc(F)c1)c1nc(-n2ccnc2)ncc1N1CCCCC1 [compound 115, N-(3-fluorophenyl)-2-(1H-imidazol-1-yl)-5-(piperidin-1-yl) pyrimidine-4-carboxamide] | 43 nM
16 | O=C(Nc1cccc(F)c1)c1ccnc(-c2ccn[nH]2)n1 [compound 116, N-(3-fluorophenyl)-2-(1H-pyrazol-5-yl)pyrimidine-4-carboxamide] | > 10000 nM
17 | CN(C(=O)c1cc(N2CCCCC2)nc(-n2ccnc2)n1)c1cccc(F)c1 [compound 117, N-(3-fluorophenyl)-2-(1H-imidazol-1-yl)-N-methyl-6-(piperidin-1-yl)pyrimidine-4-carboxamide] | > 10000 nM
18 | O=C(Nc1cccc(F)c1)c1cc(OC2CCC2)nc(-n2ccnc2)n1 [compound 121, 6-cyclobutoxy-N-(3-fluorophenyl)-2-(1H-imidazol-1-yl)pyrimidine-4-carboxamide] | 8 nM
19 | O=C(Nc1cccc(Cl)c1)c1cc(C(F)(F)F)nc(-n2ccnc2)n1 [compound 124, N-(3-chlorophenyl)-2-(1H-imidazol-1-yl)-6-(trifluoromethyl) pyrimidine-4-carboxamide] | 3 nM
20 | O=C(NC1CCCCC1)c1cc(N2CCCCC2)cc(-n2ccnc2)n1 [compound 130, N-cyclohexyl-6-(1H-imidazol-1-yl)-4-(piperidin-1-yl)picolinamide] | 149 nM

Row | Compound | IC50
21 | O=C(Nc1cc(F)ccc1F)c1cc(N2CCCCC2)nc(-n2ccnc2)n1 [compound 135, N-(2,5-difluorophenyl)-2-(1H-imidazol-1-yl)-6-(piperidin-1-yl)pyrimidine-4-carboxamide] | 36 nM
22 | Cc1ccc(F)cc1NC(=O)c1cc(N2CCCCC2)nc(-n2ccnc2)n1 [compound 137, N-(5-fluoro-2-methylphenyl)-2-(1H-imidazol-1-yl)-6-(piperidin-1-yl)pyrimidine-4-carboxamide] | > 10000 nM
23 | CC1(C)CCC(NC(=O)c2cc(C(F)(F)F)nc(-n3ccnc3)n2)CC1 [compound 138, N-(4,4-dimethylcyclohexyl)-2-(1H-imidazol-1-yl)-6-(trifluoromethyl) pyrimidine-4-carboxamide] | 76 nM
24 | CC(C)(C)NC(=O)c1cc(C(F)(F)F)nc(-n2ccnc2)n1 [compound 141, N-(tert-butyl)-2-(1H-imidazol-1-yl)-6-(trifluoromethyl) pyrimidine-4-carboxamide] | 1030 nM
25 | O=C(NC1CCCCC1)c1cc(N2CCCCC2)nc(-n2ccnc2)n1 [compound 144, N-cyclohexyl-2-(1H-imidazol-1-yl)-6-(piperidin-1-yl)pyrimidine-4-carboxamide] | 46 nM
26 | C[C@H]1CC[C@H](NC(=O)c2cc(C(F)(F)F)nc(-n3ccnc3)n2)CC1 [compound 146, 2-(1H-imidazol-1-yl)-N-((1r,4r)-4-methylcyclohexyl)-6-(trifluoromethyl) pyrimidine-4-carboxamide] | 18 nM
27 | C[C@H]1CC[C@H](NC(=O)c2cc(N3CCCCC3)nc(-n3ccnc3)n2)CC1 [compound 147, 2-(1H-imidazol-1-yl)-N-((1r,4r)-4-methylcyclohexyl)-6-(piperidin-1-yl)pyrimidine-4-carboxamide] | 70 nM
28 | CO[C@H]1CC[C@H](NC(=O)c2nc(-n3ccnc3)ccc2C(F)(F)F)CC1 [compound 151, 6-(1H-imidazol-1-yl)-N-((1r,4r)-4-methoxycyclohexyl)-3-(trifluoromethyl) picolinamide] | 1550 nM
29 | CO[C@H]1CC[C@H](NC(=O)c2ccc(C(F)(F)F)c(-n3ccnc3)n2)CC1 [compound 152, 6-(1H-imidazol-1-yl)-N-((1r,4r)-4-methoxycyclohexyl)-5-(trifluoromethyl) picolinamide] | > 10000 nM
30 | CO[C@H]1CC[C@H](NC(=O)c2ccnc(-n3cnc(C(F)(F)F)c3)n2)CC1 [compound 153, N-((1r,4r)-4-methoxycyclohexyl)-2-(4-(trifluoromethyl)-1H-imidazol-1-yl) pyrimidine-4-carboxamide] | > 10000 nM
31 | CO[C@H]1CC[C@H](NC(=O)c2ccnc(-n3ccnc3C(F)(F)F)n2)CC1 [compound 154, N-((1r,4r)-4-methoxycyclohexyl)-2-(2-(trifluoromethyl)-1H-imidazol-1-yl) pyrimidine-4-carboxamide] | > 10000 nM
32 | COCCO[C@H]1CC[C@H](NC(=O)c2cc(C(F)(F)F)nc(-n3ccnc3)n2)CC1 [compound 157, 2-(1H-imidazol-1-yl)-N-((1r,4r)-4-(2-methoxyethoxy)cyclohexyl)-6-(trifluoromethyl) pyrimidine-4-carboxamide] | 49 nM
33 | C[C@H]1CC[C@H](NC(=O)c2cc(C(F)(F)F)cc(-n3ccnc3)n2)CC1 [compound 158, 6-(1H-imidazol-1-yl)-N-((1r,4r)-4-methylcyclohexyl)-4-(trifluoromethyl) picolinamide] | 37 nM
34 | O=C(Nc1cccc(F)c1)c1nc(-n2ccnc2)ccc1C(F)(F)F [compound 159, N-(3-fluorophenyl)-6-(1H-imidazol-1-yl)-3-(trifluoromethyl) picolinamide] | 34 nM
35 | O=C(Nc1cccc(F)c1)c1ccc(C(F)(F)F)c(-n2ccnc2)n1 [compound 160, N-(3-fluorophenyl)-6-(1H-imidazol-1-yl)-5-(trifluoromethyl) picolinamide] | 317 nM
36 | CO[C@H]1CC[C@H](NC(=O)c2nc(-n3ccnc3)ncc2C(F)(F)F)CC1 [compound 161, 2-(1H-imidazol-1-yl)-N-((1r,4r)-4-methoxycyclohexyl)-5-(trifluoromethyl) pyrimidine-4-carboxamide] | 831 nM
37 | O=C(NC1CCNCC1)c1cc(C(F)(F)F)nc(-n2ccnc2)n1 [compound 162, 2-(1H-imidazol-1-yl)-N-(piperidin-4-yl)-6-(trifluoromethyl) pyrimidine-4-carboxamide hydrochloride] | > 10000 nM
38 | O=C(NC1CCOCC1)c1cc(C(F)(F)F)nc(-n2ccnc2)n1 [compound 163, 2-(1H-imidazol-1-yl)-N-(tetrahydro-2H-pyran-4-yl)-6-(trifluoromethyl) pyrimidine-4-carboxamide] | 92 nM
39 | N#Cc1ccc(NC(=O)c2cc(C(F)(F)F)nc(-n3ccnc3)n2)cn1 [compound 164, N-(6-cyanopyridin-3-yl)-2-(1H-imidazol-1-yl)-6-(trifluoromethyl) pyrimidine-4-carboxamide] | 4 nM
